The source of these data is BindingDB's records for doi:10.1158/1535-7163.MCT-07-0352 (Saic-Frederick, 2007).

In the experiment the target is T1, Broad substrate specificity ATP-binding cassette transporter ABCG2 (Homo sapiens, UniProt Q9UNQ0).
T1 sequence (Q9UNQ0 whole entry): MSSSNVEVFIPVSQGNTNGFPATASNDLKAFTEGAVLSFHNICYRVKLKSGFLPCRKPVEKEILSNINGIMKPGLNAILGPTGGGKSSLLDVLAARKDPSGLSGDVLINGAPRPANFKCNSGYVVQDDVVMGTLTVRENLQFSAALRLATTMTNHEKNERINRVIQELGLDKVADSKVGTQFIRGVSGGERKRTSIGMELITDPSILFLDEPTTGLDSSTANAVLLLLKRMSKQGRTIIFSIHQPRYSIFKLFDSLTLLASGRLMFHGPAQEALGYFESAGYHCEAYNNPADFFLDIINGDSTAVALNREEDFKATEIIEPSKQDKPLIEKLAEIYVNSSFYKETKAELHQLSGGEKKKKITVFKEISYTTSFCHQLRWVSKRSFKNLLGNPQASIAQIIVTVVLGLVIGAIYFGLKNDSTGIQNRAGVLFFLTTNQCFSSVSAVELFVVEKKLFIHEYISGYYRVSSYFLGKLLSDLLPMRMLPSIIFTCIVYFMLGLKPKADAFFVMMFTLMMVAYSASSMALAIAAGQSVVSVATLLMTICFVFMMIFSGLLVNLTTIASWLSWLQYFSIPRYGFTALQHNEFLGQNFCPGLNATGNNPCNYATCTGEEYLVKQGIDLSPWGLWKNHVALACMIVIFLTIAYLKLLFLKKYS
Put plainly: Screening Assay for ABCG2 Inhibitors. Conditions: pH 7.4; 37 °C. The protocol:
IC50 and maximal activities for inhibition of PhA accumulation were determined from dose-response curves. The accumulation of PhA, a fluorescent ABCG2 substrate, formed the basis of the assay for inhibitors of ABCG2 activity. NCI-H460/MX20 cells were transferred to black-walled, clear-bottomed 384-well polylysine-coated assay plates (Corning) and allowed to attach for several hours. PhA was added, immediately followed by compounds or vehicle (DMSO/PBS) control and incubated for an additional 18 h. After removal of medium and washing with PBS containing Ca2+ and Mg2+, fluorescence intensity was read on a Tecan Safire fluorescence plate reader in bottom read mode (395 nm excitation, 670 nm emission). Each plate had control wells containing Fumitremorgin C (FTC). Data were normalized to FTC and reported as the percentage of FTC fluorescence. Apparent IC50 values were calculated from dose-response data using SigmaPlot (SPSS, Inc., Chicago) 4-parameter logistic nonlinear regression analysis.
`NN=C1C(OC(=O)Nc2cccc(Cl)c2)=Nc2ccccc21` [NSC320852]: the half-maximal inhibitory concentration (IC50) amounted to 4.6 µM. In other words, the single-digit micromolar range.

As for `Cc1[nH]n(C(=O)c2ccncc2)c(=O)c1N=Nc1ccc2ccccc2c1` [NSC303769], the IC50 is 5.8 µM.

The compound `CC1CCC2(OC1)OC1C(O)C3C4CCC5CC(OC6OC(CO)C(OC7OC(CO)C(O)C(OC8OCC(O)C(O)C8O)C7OC7OC(CO)C(O)C(OC8OC(CO)C(O)C(O)C8O)C7O)C(O)C6O)C(O)CC5(C)C4CCC3(C)C1C2C` (stereo not given) [Digitonin] had an IC50 of 9.7 µM.

As for `Cc1ccc(NC(=O)c2cc3ccccc3cc2O)c(C)c1` [NSC306698], the IC50 is 5.4 µM.

The compound `CC(C)C1(NC(=O)C2CC3c4cccc5[nH]cc(c45)CC3N(C)C2)OC2(O)C3CCCN3C(=O)C(Cc3ccccc3)N2C1=O` (stereo not given) [Dihydroergocristine] had an IC50 of 11.8 µM.

One may read the IC50 as the point on the concentration scale where inhibition reaches its midpoint.
